Consider eight molecules from patent US12699084B2, “Method and means for diagnosing a human sepsis” (Julius-Maximilans-Universität Würzburg, priority 2019, dated 2026).

What all share (assay type): cell-based, human
Experiment [1] relates to platelets of sepsis patients. Kind of experiment: Platelet reactivity by flow cytometry in whole blood (PAC-1 binding, CD62P exposure). The conditions noted are these: sepsis patients vs healthy controls, day of ICU admission; CRP-XL 0.01 μg/mL, convulxin 0.01 μg/mL, ADP 5 μM. For orientation: Flow cytometry measures light scatter and fluorescence of single cells or particles in a stream.
Experimental: Platelet reactivity assays are shown at the following time points: I: admission day, II: day 5-7 and III: day of ICU discharge. (S)=sepsis patient; (HC)=healthy control. (A-H) Platelet integrin activation (A, C, E, G) and P-selectin exposure (B, D, F, H) were measured upon stimulation with CRP-XL [0.01 μg/mL](A-D), Convulxin [0.01 μg/ml] (E, F) and ADP [5 μM] (G, H) in whole blood by flow cytometry. […] (I-N) Maximum aggregation is depicted upon stimulation with CRP-XL [0.1 μg/mL] (I, J) rhodocytin [1 nM] (K, L) and TRAP-6 [10 μM] (M, N). […] Graphs show median±IQR. Differences were analyzed by Kruskal-Wallis test (A-N). n.s. non-significant, *p>0.05, **p>0.01, ***p>0.001, ****p>0.0001
Platelet reactivity of healthy controls (HC) and patients with sepsis (S) is depicted upon stimulation with CRP-XL standard dose [0.1 μg/mL in aggregometry; 0.01 μg/mL in flow cytometry] and CRP-XL high dose (CRP-XLhi) [1 μg/mL] (A-B) Platelet activation due to integrin activation indicated through PAC-1 binding (A) or P-selectin exposure (B) was assessed in whole blood by flow cytometry. (C-D) Light transmission aggregometry was performed using washed platelets [500 000 1/μL]. Samples were measured for 5 minutes. […] All graphs show median f IQR. […]

Experiment [2] concerns platelets of Covid-19 patients.
For experiment [3], the system named is platelets (GPVI-mediated platelet reactivity). Kind of experiment: Platelet-antibiotic co-incubation in whole blood, P-selectin exposure by flow cytometry. The settings on record: whole blood of healthy donors, antibiotic at therapeutic peak plasma level, 2 h at 37° C., resting and CRP-XL [0.01 μg/mL] stimulated platelets. How it is done:
Antibiotics were added to whole blood of healthy donors. Incubation was performed for 2 h at 37° C. P-selectin exposure was determined subsequently by flow cytometry on resting (A) and CRP-XL [0.01 μg/mL] stimulated platelets (B). The following drugs were used: piperacillin/tazobactam [P/T=298 μg/mL; 4 μg/mL], vancomycin [V=60 μg/mL], metronidazole [M=25 μg/mL], ciprofloxacin [Cx=4.56 μg/mL].
Whole blood was diluted 1:10 in modified HEPES-buffered Tyrode's solution (NaCl 137 mM, NaHCO312 mM, HEPES 5 mM, KCl 2.7 mM, MgCl2 1 mM, Na2HPO4 0.43 mM, glucose 0.1%, BSA 0.36%). Flow cytometry was conducted using a FACSCelesta™ flow cytometer (Becton Dickinson, Franklin Lakes, NJ, USA). Prior to reactivity measurement, platelets were incubated with respective agonists at indicated concentrations for five minutes. Staining of reticulated platelets was performed using thiazole orange (Sigma Aldrich, St. Louis, MO, USA) for 60 min at room temperature protected from light. After antibody addition samples rested for 15 min in the dark until the reaction was stopped with addition of 1.5 mL FACS-Flow sample buffer (Becton Dickinson).
As all sepsis patients received antibiotic therapy, the present inventors next evaluated whether antimicrobial drugs could reduce GPVI/CLEC-2 reactivity.

In experiment [4] the test system is washed platelets of sepsis patients. Kind of experiment: Light transmission aggregometry with washed platelets. The settings on record: for aggregation at last visit, discharged patients vs patients who died: last available values (discharge/death). How it is done: Platelet reactivity assays are shown at the following time points: I: admission day, II: day 5-7 and III: day of ICU discharge. (S)=sepsis patient; (HC)=healthy control. (A-H) Platelet integrin activation (A, C, E, G) and P-selectin exposure (B, D, F, H) were measured upon stimulation with CRP-XL [0.01 μg/mL](A-D), Convulxin [0.01 μg/ml] (E, F) and ADP [5 μM] (G, H) in whole blood by flow cytometry. Representative curves upon CRP-XL stimulation at time point I are shown in A and B. (I-N) Light transmission aggregometry was performed using washed platelets [500 000 1/μL]. (I-N) Maximum aggregation is depicted upon stimulation with CRP-XL [0.1 μg/mL] […] (K, L) and TRAP-6 [10 μM] (M, N). Representative curves are shown in FIG. I, K, M. […] Graphs show median±IQR. Differences were analyzed by Kruskal-Wallis test (A-N). n.s. non-significant, *p>0.05, **p>0.01, ***p>0.001, ****p>0.0001
Platelet reactivity of healthy controls (HC) and patients with sepsis (S) is depicted upon stimulation with CRP-XL standard dose [0.1 μg/mL in aggregometry; 0.01 μg/mL in flow cytometry] and CRP-XL high dose (CRP-XLhi) [1 μg/mL] (A-B) Platelet activation due to integrin activation indicated through PAC-1 binding (A) or P-selectin exposure (B) was assessed in whole blood by flow cytometry. (C-D) Light transmission aggregometry was performed using washed platelets [500 000 1/μL]. Samples were measured for 5 minutes. Representative curves are shown in C. (D-E) Platelets were lysed after 5 minutes of CRP-XL stimulation or resting conditions. Staining was performed with phospho-tyrosine antibody 4g10. 72 kDa band intensity was set in relation to a housekeeping protein in arbitrary units (AU). All graphs show median f IQR.
(A) Light transmission aggregometry was performed using washed platelets [500 000 1/μL]. Maximum aggregation is depicted upon stimulation with CRP-XL (C) [0.1 μg/mL] and TRAP-6 [5 μM](T). (B) mean platelet volume. (C) Reticulated platelets indicated as thiazole orange (TO) positive fraction were assessed by flow cytometry. (D) GPVI-ectodomain plasma-levels measured by ELISA. (E) Platelet count. (F) SOFA-Score. All graphs show median f IQR. Differences were analyzed using Kolmogorov-Smirnov test. n.s. non-significant, *p>0.05, **p>0.01,
After centrifugation of whole blood at 152 g for 20 min, platelet rich plasma (PRP) was separated and incubated in acetylsalicylic acid (ASS) for 30 min (final concentration 2 μM). Prostaglandine E1 (1 μM) and apyrase (2 U/mL) were added and platelets were washed with modified HEPES-buffered Tyrode's solution once (1000 g, 10 min). PPP was cryopreserved for further investigation. Afterwards platelet count was adjusted to 500 000 1/μL through resuspension in re-calcified Hepes buffered Tyrode's solution (CaCl2) 2 mM). Light transmission aggregometry was performed using an APACT 4S (LABiTec, Ahrensburg, Germany) aggregometer at 37° C. stirring conditions. Maximum aggregation was assessed in percent in relation to re-calcified Hepes buffered Tyrode's solution as blank. For further molecular analysis platelets were lysed through addition of ice-cold 2× lysis buffer (NaCl150 mM, HEPES 15 mM, EGTA10 mM, Triton X-100 2%, Na3VO4 2 mM, PMSF 1 mM, Aprotinin A 1 mM, Leupeptin 1 mM, Pepstatin 1 mM).

In experiment [5] the test system is washed platelets. Kind of experiment: Immunoblot of global tyrosine phosphorylation (4G10) in platelet lysates. The settings on record: 0.1 μg/mL CRP-XL or 10 nM rhodocytin. How it is done:
Washed platelets [500 000 1/μL] of healthy controls (HC) and patients (S) were stimulated with CRP-XL (C) and rhodocytin (R). Lysis was done at the following time points: C: 5 min, R: 10 min. I: admission day, II: day 5-7 and III: day of ICU discharge. (A-C) Western Blot analysis of platelet lysates. Staining was performed with anti-phospho-tyrosine antibody 4g10. 72 kDa band intensity was set in relation to signal intensity of Syk or GAPDH in arbitrary units (AU). Representative blots are shown in figures A (time point I) and B (time point III). (D-F) Phosphorylation of signaling peptides Syk and Lat was investigated by Western blot. One representative blot is shown in D. (G-J) Phosphorylation analysis of ITIM-signaling associated phosphatases SHP-1 and SHP-2. Phospho-protein intensity was set in relation to intensity of unphosphorylated protein shown in H and J. Representative Western blots are shown in G and I. All graphs display median f IQR.
After centrifugation of whole blood at 152 g for 20 min, platelet rich plasma (PRP) was separated and incubated in acetylsalicylic acid (ASS) for 30 min (final concentration 2 μM). Prostaglandine E1 (1 μM) and apyrase (2 U/mL) were added and platelets were washed with modified HEPES-buffered Tyrode's solution once (1000 g, 10 min). […] Maximum aggregation was assessed in percent in relation to re-calcified Hepes buffered Tyrode's solution as blank. […]
A general note: Immunoblotting shows a protein as a band on a membrane.

Read-outs that look alike come from different tables or passages of the source.

For `Nc1ncnc2c1ncn2[C@@H]1O[C@H](COP(=O)(O)OP(=O)(O)O)[C@@H](O)[C@H]1O` [ADP], the “platelet activation (PAC-1 binding, CD62P exposure) upon stimulation” value in experiment [1] is listed as “platelet reactivity was also highly impaired”. Also, the “platelet reactivity upon stimulation” value in experiment [2] (19 critically-ill Covid-19 patients, 14 days at ICU) is given as “global hyporeactivity”.

For piperacillin/tazobactam, the “impact on GPVI-mediated platelet reactivity (P-selectin exposure)” value (from here on “impact … (P-selectin exposure)”) in experiment [3] is “none of these drugs had an impact on GPVI-mediated platelet reactivity”.

In the case of `CN[C@H](CC(C)C)C(=O)N[C@H]1C(=O)N[C@@H](CC(N)=O)C(=O)N[C@H]2C(=O)N[C@H]3C(=O)N[C@H](C(=O)N[C@H](C(=O)O)c4cc(O)cc(O)c4-c4cc3ccc4O)[C@H](O)c3ccc(c(Cl)c3)Oc3cc2cc(c3O[C@@H]2O[C@H](CO)[C@@H](O)[C@H](O)[C@H]2O[C@H]2C[C@](C)(N)[C@H](O)[C@H](C)O2)Oc2ccc(cc2Cl)[C@H]1O` [vancomycin], in experiment [3], the “impact … (P-selectin exposure)” value is given as “none of these drugs had an impact on GPVI-mediated platelet reactivity”.

For `Cc1ncc([N+](=O)[O-])n1CCO` [metronidazole], the “impact … (P-selectin exposure)” value in experiment [3] is “none of these drugs had an impact on GPVI-mediated platelet reactivity”.

On to `O=C(O)c1cn(C2CC2)c2cc(N3CCNCC3)c(F)cc2c1=O` [ciprofloxacin], for which the “impact … (P-selectin exposure)” value in experiment [3] is “none of these drugs had an impact on GPVI-mediated platelet reactivity”.

For TRAP-6, in experiment [2], the “platelet reactivity upon stimulation” value was “global hyporeactivity”. The “aggregation at last visit, discharged patients vs patients who died” value in experiment [4] (sepsis patients) is recorded as “no differences”. Also, in experiment [4] (sepsis platelets, day of ICU admission, 10 μM TRAP-6), the “aggregation potential, mean” value was found to be 34.2%. The “aggregation potential, minimum” value in experiment [4] (sepsis platelets, day of ICU admission, 10 μM TRAP-6, every studied patient) is on record as no less than 21.2%.

B1: rhodocytin: selective CLEC-2 agonist (protein)
chain 1: GLEDCDFGWSPYDQHCYQAFNEQKTWDEAEKFCRAQENGAHLASIESNGEADFVSWLISQKDELADEDYVWIGLRAQNKEQQCSSEWSDGSSVSYENLIDLHTKKCGALEKLTGFRKWVNYYCEQMHAFVCKLLPY
chain 2: DCPSGWSSYEGHCYKPFNEPKNWADAERFCKLQPKHSHLVSFQSAEEADFVVKLTRPRLKANLVWMGLSNIWHGCNWQWSDGARLNYKDWQEQSECLAFRGVHTEWLNMDCSSTCSFVCKFKA
As to B1, in experiment [4] (sepsis patients vs healthy controls, time point I, CRP-XL 0.1 μg/ml, rhodocytin 10 nM), the “platelet aggregation upon stimulation” value is recorded as “abolished aggregation was found in 5/8 patients”. For the same molecule, the “aggregation at last visit, discharged patients vs patients who died” value in experiment [4] (sepsis patients) is “no differences”. Moreover, the “maximum aggregation, recovery at discharge” value in experiment [4] (sepsis patients, time point III (discharge from ICU), CRP-XL 0.1 μg/ml, rhodocytin) is reported as “completely recovered”. Besides, the “induction of tyrosine phosphorylation (pTyr bands)” value in experiment [5] (platelets of healthy donors) is reported as “readily inducible in healthy donors”; in experiment [5] (platelets of sepsis patients), “tyrosine phosphorylation was not inducible in platelets of sepsis patients”.

B2: convulxin (protein)
chain 1: GLHCPSDWYYYDQHCYRIFNEEMNWEDAEWFCTKQAKGAHLVSIKSAKEADFVAWMVTQNIEESFSHVSIGLRVQNKEKQCSTKWSDGSSVSYDNLLDLYITKCSLLKKETGFRKWFVASCIGKIPFVCKFPPQC
chain 2: GFCCPSHWSSYDRYCYKVFKQEMTWADAEKFCTQQHTGSHLVSFHSTEEVDFVVKMTHQSLKSTFFWIGANNIWNKCNWQWSDGTKPEYKEWHEEFECLISRTFDNQWLSAPCSDTYSFVCKFEA
Take B2: the “platelet activation (PAC-1 binding, CD62P exposure) upon stimulation” value in experiment [1] is listed as “impaired platelet activation was still evident, albeit to a lesser extent compared to CRP-XL”.
